# In ChEMBL document CHEMBL3259589, “Synthesis and radical-scavenging activity of a dimethyl catechin analogue” (Bioorg Med Chem Lett, 2014):
# Assay: Antioxidant activity assessed as galvinoxyl free radical scavenging activity measured as second order rate constant by spectrophotometry
# Type: functional
smiles,measurement,value
Oc1cc(O)c2c(c1)O[C@H](c1ccc(O)c(O)c1)[C@@H](O)C2,K (10'1mol/dm3/s),3.87
